Measured values published in patent publication US20250129021A1, “SMALL MOLECULE PROTEIN SYNTHESIS MODULATORS” (Interdict Bio, Inc., priority 2023, published 2025).

What was measured:
Format in all cases: biochemical
CCNE1 = assay: In vitro transcription-translation (IVTT) assay, CCNE1 reporter; settings: HeLa S3 lysate, 2 hrs at 30° C.
Method: Each preparation takes 8 cell pellets (4 ml packed volume each, approximately 1.0×10^9 cells per pellet). Thaw cell pellets from −80° C. on ice for 90 mins. Lay pellets horizontally on top of the ice and rotate every 30 mins to ensure even thawing. Once thawed, add 4 mL of cold lysis buffer to each pellet, and using a serological pipet, gently pipet up and down to break up clumps. Incubate resuspended cells in ice for an additional 30 mins (plunged into ice). During 30 min incubation, rinse and RNase-zap (Ambion) glass dounces (use loose pestle “A”), gently dry and place on ice until needed. Prepare RNase-free Eppendorf tubes for spinning and for batch storage. Add batch labels to 1.5-1.7 mL RNase-free microcentrifuge tubes (labeling scheme below). Each batch will have an extra 1.5-1.7 mL RNase-free microcentrifuge tube for 40 μL of lysate, label the top of this tube (labeling scheme below). After 30 min incubation, transfer all 8 mL of cell pellet to dounce. Cell lysis is complete after douncing 100 times. Aliquot cell lysis into 1.5-1.7 mL temporary-microcentrifuge tubes. Place tubes in centrifuge with “fins” out, and spin at 1,200×g for 5 mins. After the first spin use a 1 mL pipet to resuspend each tube and repeat spin. This acts as an additional lysis step, is more vigorous and increases lysate yield. During second spin get liquid N2 and a fresh conical tube on ice. After spin is complete, transfer supernatant (lysate) from microcentrifuge tubes into the 50 mL conical tube and keep on ice. Repeat steps 10-14 for all other cell pellets until completed. Once all cell lysate has been transferred to the 50 mL conical tube pipet to mix so the solution is homogenous. Transfer 1 mL of lysate into batch-labeled microcentrifuge tubes and flash freeze in liquid nitrogen. Be sure to pipet up and down to mix throughout transfer step. Place all tubes in the […] for long-term storage.
In vitro transcription-translation assay setup: Each assay includes a master mix containing lysate and shared components, a 96-well plate containing compound titrations for testing, a 96-well DNA plate with reporter constructs to be tested, 96-well skirted PCR plates, and 96-well flat-bottom, black, fluorescent assay plates. Reaction materials setup: (A) Master mix—15 mL conical tube (3 mL of HeLa S3 Lysate described above; 0.6 mL of ThermoFisher Accessory Proteins (#88882); 1.2 ml of ThermoFisher Reaction Mix (#88882); 0.54 mL of nuclease-free Water); (B) 96-Well Master Mix+Compound Plate (Half-log dilutions (30 μM−0.1 μM) of 4 compounds of interest are prepared in 100% DMSO); 96-Well DNA Plate (Five DNA constructs are plated into single columns within the plate. Row 1 of the column contains nuclease free H2O, all other wells contain 110 ng/μL plasmid DNA). Reactions are started by mixing 155 μL of master mix and 3.5 μL of compound serial dilutions, then 9.1 μL of master mix+compound mixture is aliquoted across 5 96-well plates. Reactions begin with final addition of 2 μL of DNA for a 11.1 μL reaction volume in each well. The entire plate is sealed, and incubated for 2 hrs at 30° C. After 2 hrs, quench the assay using 45 μL of PBS, and transfer 50 μL to a flat-bottom black microplate Quantify the sfGFP and mCherry signals from each well on each plate, taking 3 reads of each plate, and perform data analysis below.
In vitro transcription-translation assay data analysis: Each plate is read three times in channels for both sfGFP and mCherry signals. The average signal across these 3 reads is then calculated for further analysis. Control wells containing no DNA reporter are subtracted from reporter wells in the same column to remove auto-fluorescence of the lysate. Then, the ratio of sfGFP/mCherry is calculated per well, and these ratios are averaged across the triplicate experiments on the same plate. Finally, the ratio of each titration concentration is normalized to the no drug control to create the normalized stalling metric. […]

MYC = assay: In vitro transcription-translation (IVTT) assay, MYC reporter; settings: IVTT assay, HeLa S3 lysate, MYC reporter, normalized sfGFP/mCherry ratio; half-log dilutions 30 μM-0.1 μM, 2 hrs at 30° C.
Procedure, shortened: (§1)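 Reporter: mCherry, P2A, then 3×FLAG-target peptide-sfGFP fusion, IRES-initiated; HeLa S3 lysate IVTT; cpd dilutions 30 μM−0.1 μM half-log in 100% DMSO (dilution-plate conc); DNA added last; 2 h, 30° C; PBS quench.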

CCND1 = assay: In vitro transcription-translation (IVTT) assay, CCND1 reporter; settings: IVTT, HeLa S3 lysate, 2 hrs at 30° C.
Procedure, shortened: as §1

CCNTB1 = assay: In vitro transcription-translation (IVTT) assay, CCNTB1 reporter; settings: HeLa S3 lysate, 2 hrs at 30° C.
Procedure, shortened: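 HeLa S3 lysate-based coupled transcription-translation reactions with reporter plasmids, compounds in half-log dilutions (30 μM−0.1 μM, in DMSO), 2 h at 30° C. sfGFP/mCherry ratio, corrected for no-DNA background, normalized to no-drug control and fitted for IC50.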

SMILES | IC50 (CCNE1) [µM] | IC50 (MYC) [µM] | IC50 (CCND1) [µM] | IC50 (CCNTB1) [µM]
COc1ccc(C[C@H]2NC[C@H](O)[C@H]2OC(=O)NC[C@@H]2[C@@H]3CNC[C@@H]32)cc1 [V188161, (2R,3S,4S)-4-hydroxy-2-[(4-methoxyphenyl)methyl]pyrrolidin-3-yl N-[(1R,5S,6S)-3-azabicyclo[3.1.0]hexan-6-ylmethyl]carbamate] | 10 to 20 | > 30 | > 30 | < 10
COc1ccc(C[C@H]2NC[C@H](O)[C@H]2OC(=O)NC[C@H]2C[C@@H](N)C2)cc1 [V188147, (2R,3S,4S)-4-hydroxy-2-[(4-methoxyphenyl)methyl]pyrrolidin-3-yl N-{[(1s,3s)-3-aminocyclobutyl]methyl}carbamate] | < 10 | < 10 | 10 to 20 | < 10
O=C(NCc1ccccc1)O[C@@H]1[C@@H](O)CN[C@@H]1Cc1ccc(Cl)cc1 [V188203, (2R,3S,4S)-2-[(4-chlorophenyl)methyl]-4-hydroxypyrrolidin-3-yl N-benzylcarbamate] | < 10 | 10 to 20 | 10 to 20 | < 10
COc1ccc(C[C@H]2NC[C@H](O)[C@H]2OC(=O)NCc2ccc3[nH]cnc3c2)cc1 [V188150, (2R,3S,4S)-4-hydroxy-2-[(4-methoxyphenyl)methyl]pyrrolidin-3-yl N-(JH-1,3-benzodiazol-5-ylmethyl)carbamate] | < 10 | < 10 | < 10 | < 10
COc1ccc(C[C@H]2NC[C@H](O)[C@H]2OC(=O)NCc2ccc(-c3ncc[nH]3)cc2)cc1 [V188144, (2R,3S,4S)-4-hydroxy-2-[(4-methoxyphenyl)methyl]pyrrolidin-3-yl N-{[4-(1H-imidazol-2-yl)phenyl]methyl}carbamate] | < 10 | < 10 | < 10 | < 10
NS(=O)(=O)c1ccc(CNC(=O)O[C@@H]2[C@@H](O)CN[C@@H]2Cc2ccc(Cl)cc2)cc1 [V188291, (2R,3S,4S)-2-[(4-chlorophenyl)methyl]-4-hydroxypyrrolidin-3-yl N-[(4-sulfamoylphenyl)methyl]carbamate] | < 10 | 10 to 20 | < 10 | < 10
COc1ccc(C[C@H]2NC[C@H](O)[C@H]2OC(=O)NCCNc2cc[nH]n2)cc1 [V187944, (2R,3S,4S)-4-hydroxy-2-[(4-methoxyphenyl)methyl]pyrrolidin-3-yl N-[2-(1H-pyrazol-3-ylamino)ethyl]carbamate] | 10 to 20 | 10 to 20 | 20 to 30 | < 10
COc1ccc(C[C@H]2NC[C@H](O)[C@H]2OC(=O)NCCn2cc[nH]c2=O)cc1 [V188088, (2R,3S,4S)-4-hydroxy-2-[(4-methoxyphenyl)methyl]pyrrolidin-3-yl N-[2-(2-oxo-3H-imidazol-1-yl)ethyl]carbamate] | 10 to 20 | 20 to 30 | > 30 | < 10
O=C(NC[C@H]1CCNC1)O[C@@H]1[C@@H](O)CN[C@@H]1Cc1ccc(Cl)cc1 [V188188, (2R,3S,4S)-2-[(4-chlorophenyl)methyl]-4-hydroxypyrrolidin-3-yl N-[(3S)-pyrrolidin-3-ylmethyl]carbamate] | < 10 | > 30 | > 30 | < 10
COc1ccc(C[C@H]2NC[C@H](O)[C@H]2OC(=O)NCC(F)(F)CO)cc1 [V188164, (2R,3S,4S)-4-hydroxy-2-[(4-methoxyphenyl)methyl]pyrrolidin-3-yl N-(2,2-difluoro-3-hydroxypropyl)carbamate] | 20 to 30 | > 30 | > 30 | 10 to 20
COc1ccc(C[C@H]2NC[C@H](O)[C@H]2OC(=O)NCC2CCNCC2)cc1 [V188172, (2R,3S,4S)-4-hydroxy-2-[(4-methoxyphenyl)methyl]pyrrolidin-3-yl N-(piperidin-4-ylmethyl)carbamate] | > 30 | > 30 | > 30 | > 30
O=C(NCc1ccc(OC(F)(F)F)cc1)O[C@@H]1[C@@H](O)CN[C@@H]1Cc1ccc(Cl)cc1 [V188286, (2R,3S,4S)-2-[(4-chlorophenyl)methyl]-4-hydroxypyrrolidin-3-yl N-{[4-(trifluoromethoxy)phenyl]methyl}carbamate] | > 30 | > 30 | > 30 | > 30
COc1ccc(C[C@H]2NC[C@H](O)[C@H]2OC(=O)NCC23CNC(C2)C3)cc1 [V188152, (2R,3S,4S)-4-hydroxy-2-[(4-methoxyphenyl)methyl]pyrrolidin-3-yl N-{2-azabicyclo[2.1.1]hexan-4-ylmethyl}carbamate] | 10 to 20 | – | > 30 | < 10
COc1ccc(C[C@H]2NC[C@H](O)[C@H]2OC(=O)NCc2cc(N3CCCC3)nc(N3CCCC3)c2)cc1 [V188228, (2R,3S,4S)-4-hydroxy-2-[(4-methoxyphenyl)methyl]pyrrolidin-3-yl N-{[2,6-bis(pyrrolidin-1-yl)pyridin-4-yl]methyl}carbamate] | > 30 | > 30 | > 30 | > 30
O=C(NC[C@@H]1CCOC1)O[C@@H]1[C@@H](O)CN[C@@H]1Cc1ccc(Cl)cc1 [V188288, (2R,3S,4S)-2-[(4-chlorophenyl)methyl]-4-hydroxypyrrolidin-3-yl N-[(3S)-oxolan-3-ylmethyl]carbamate] | < 10 | 10 to 20 | 20 to 30 | < 10
COc1ccc(C[C@H]2NC[C@H](O)[C@H]2OC(=O)NCc2ccnc(N3CCCC3)c2)cc1 [V188226, (2R,3S,4S)-4-hydroxy-2-[(4-methoxyphenyl)methyl]pyrrolidin-3-yl N-{[2-(pyrrolidin-1-yl)pyridin-4-yl]methyl}carbamate] | < 10 | < 10 | < 10 | < 10
COc1ccc(C[C@H]2NC[C@H](O)[C@H]2OC(=O)NCc2cc(N3CCC3)nc(N3CCC3)c2)cc1 [V188227, (2R,3S,4S)-4-hydroxy-2-[(4-methoxyphenyl)methyl]pyrrolidin-3-yl N-{[2,6-bis(azetidin-1-yl)pyridin-4-yl]methyl}carbamate] | 20 to 30 | 20 to 30 | 20 to 30 | < 10
COc1ccc(C[C@H]2NC[C@H](O)[C@H]2OC(=O)NCC2CCS(=O)(=O)C2)cc1 (stereo partly drawn) [V188154, (2R,3S,4S)-4-hydroxy-2-[(4-methoxyphenyl)methyl]pyrrolidin-3-yl N-[(1,1-dioxo-1lambda6-thiolan-3-yl)methyl]carbamate] | < 10 | < 10 | < 10 | < 10
COc1ccc(C[C@H]2NC[C@H](O)[C@H]2OC(=O)NC[C@H]2CCNC2)cc1F [V188076, (2R,3S,4S)-2-[(3-fluoro-4-methoxyphenyl)methyl]-4-hydroxypyrrolidin-3-yl N-[(3S)-pyrrolidin-3-ylmethyl]carbamate] | 10 to 20 | > 30 | 20 to 30 | < 10
